Source: patent US20240158446A1, “CYCLIC COMPOUND HAVING SELECTIVE INHIBITORY ACTION ON KRAS OVER HRAS AND NRAS” (CHUGAI SEIYAKU KABUSHIKI KAISHA, priority 2021, published 2024)
pIC50, pKd: −log10 of the molar value. Read-outs that look alike come from different tables or passages of the source. Where a SMILES comes first, the peptide text is derived from it. Bridges are numbered along the chain shown (N, C = ends). [ ]: non-standard residue; d: D form. The star is where a group is joined. hPhe(3-Cl-4-CF3) = N[C@@H](CCc1ccc(C(F)(F)F)c(Cl)c1)C(=O)O; NPrPhe(4-CF3) = CCCN[C@@H](Cc1ccc(C(F)(F)F)cc1)C(=O)O; NMeGly(cPent) = CN[C@H](C(=O)O)C1CCCC1; NMeD = CN[C@@H](CC(=O)O)C(=O)O; NMeL = CN[C@@H](CC(C)C)C(=O)O; Morpholide = C1CN(*)CCO1; Ac5c = NC1(C(=O)O)CCCC1; Aze = O=C(O)[C@@H]1CCN1; Sar = CNCC(=O)O

What was measured:
[1] = biological target: GDP-bound KRAS wild-type protein (Homo sapiens, UniProt P01116); assay: Binding to KRAS by surface plasmon resonance (SPR), Single Cycle Kinetics; conditions: GDP-bound KRAS wild-type protein, read-out: KRAS KD
[2] = biological target: GDP-bound NRAS wild-type protein (Homo sapiens, UniProt P01111); assay: Binding to NRAS by surface plasmon resonance (SPR), Single Cycle Kinetics; conditions: SPR, GDP-bound NRAS wild-type protein vs GDP-bound KRAS wild-type protein
[3] = biological target: GDP-bound HRAS wild-type protein (Homo sapiens, UniProt P01112); assay: Binding to HRAS by surface plasmon resonance (SPR), Single Cycle Kinetics; conditions: SPR, GDP-bound HRAS wild-type protein vs GDP-bound KRAS wild-type protein
[4] = system: human lung cancer strain NCI-H441;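 note: cell proliferation inhibition after four days measured by CellTiter-Glo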
[5] = SPR, Single Cycle Kinetics, 1:1 binding model
[6] = SPR Single Cycle Kinetics, 1:1 binding model

GDP-bound KRAS wild-type protein, sequence (P01116 whole entry): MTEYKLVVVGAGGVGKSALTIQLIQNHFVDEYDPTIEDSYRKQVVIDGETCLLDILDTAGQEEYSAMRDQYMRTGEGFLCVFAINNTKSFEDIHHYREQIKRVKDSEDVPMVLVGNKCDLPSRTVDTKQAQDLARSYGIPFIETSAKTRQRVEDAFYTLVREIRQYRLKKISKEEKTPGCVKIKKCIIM
GDP-bound NRAS wild-type protein, sequence (P01111 whole entry): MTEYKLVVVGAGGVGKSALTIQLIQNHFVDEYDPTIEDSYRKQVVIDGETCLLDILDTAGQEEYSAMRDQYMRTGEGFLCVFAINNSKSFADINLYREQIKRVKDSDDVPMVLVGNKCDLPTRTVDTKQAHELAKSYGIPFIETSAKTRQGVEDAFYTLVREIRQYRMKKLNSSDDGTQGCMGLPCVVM
GDP-bound HRAS wild-type protein, sequence (P01112 whole entry): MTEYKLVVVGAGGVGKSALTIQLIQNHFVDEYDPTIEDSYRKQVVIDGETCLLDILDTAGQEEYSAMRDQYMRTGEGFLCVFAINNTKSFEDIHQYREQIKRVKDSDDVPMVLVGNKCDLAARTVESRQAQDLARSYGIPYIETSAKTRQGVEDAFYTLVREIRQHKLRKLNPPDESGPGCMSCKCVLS

| SMILES | pKd [1, 5] | NRAS/KRAS (ratio of KD value for NRAS to KD value for KRAS) ([2]; KD ratio class) | HRAS/KRAS (ratio of KD value for HRAS to KD value for KRAS) ([3]; KD ratio class) | pIC50 [4] | pKd ([1]; SPR, Single Cycle Kinetics) | NRAS/KRAS (ratio of KD value for NRAS to KD value for KRAS) [2] | HRAS/KRAS (ratio of KD value for HRAS to KD value for KRAS) [3] | pKd [1, 6] | NRAS/KRAS (ratio of KD value with respect to NRAS to KD value with respect to KRAS) [2] | HRAS/KRAS (ratio of KD value with respect to HRAS to KD value with respect to KRAS) [3] |
| --- | --- | --- | --- | --- | --- | --- | --- | --- | --- | --- |
| CCO[C@@H]1C[C@H]2C(=O)NC3(CCC3)C(=O)N(C)[C@@H](C3CCCC3)C(=O)N(C)[C@H](C(=O)N(C)C)CC(=O)N(C)[C@@H](CC3CC3)C(=O)N[C@@H]([C@@H](C)CC)C(=O)N(C)CC(=O)N(C)[C@H]3C/C=C\CCN(C3=O)[C@@H](Cc3ccc(C)cc3)C(=O)N(C)CC(=O)N[C@@H](CCc3cc(F)c(C(F)(F)F)c(F)c3)C(=O)N2C1 [PP1407, (2S,8S,12R,14S,20S,23S,27S,30S,36S,38Z)-20-cyclopentyl-27-(cyclopropylmethyl)-8-[2-[3,5-difluoro-4-(trifluoromethyl)phenyl]ethyl]-12-ethoxy-N,N,4,19,22,26,32,35-octamethyl-30-[(1S)-1-methylpropyl]-3,6,9,15,18,21,25,28,31,34,42-undecaoxo-2-(p-tolylmethyl)spiro[1,4,7,10,16,19,22,26,29,32,35-undecazatricyclo[34.5.1.0^10,14]dotetracont-38-ene-17,1′-cyclobutane]-23-carboxamide] | 10.13 | A (a compound having 10 or more and less than 20 is denoted as A) | A (a compound having 10 or more and less than 20 is denoted as A) | 7.73 | – | – | – | – | – | – |
| CCO[C@@H]1C[C@H]2C(=O)NC3(CC(C)(C)C3)C(=O)N(C)[C@@H](C(CC)CC)C(=O)N(C)[C@H](C(=O)N(C)C)CC(=O)N(C)[C@@H](C(C)C)C(=O)N[C@@H]([C@@H](C)CC)C(=O)N(C)CC(=O)N(C)[C@H]3C/C=C\CCN(C3=O)[C@@H](CC3CCC(F)(F)CC3)C(=O)N(C)CC(=O)N[C@@H](CCc3ccc(C(F)(F)F)c(Cl)c3)C(=O)N2C1 [PP2492] | – | – | – | 7.12 | 8.62 | AA (a compound having 20 or more is denoted as AA) | A (a compound having 10 or more and less than 20 is denoted as A) | – | – | – |
| CCO[C@@H]1C[C@H]2C(=O)NC3(CCC3)C(=O)N(C)[C@@H](C(CC)CC)C(=O)N(C)[C@H](C(=O)N(C)C)CC(=O)N(C)[C@@H](CC3CCCC3)C(=O)N[C@@H]([C@@H](C)CC)C(=O)N(C)CC(=O)N(C)[C@H]3C/C=C\CCN(C3=O)[C@@H](CC3CCC(F)(F)CC3)C(=O)N(C)CC(=O)N[C@@H](CCc3cc(F)c(C(F)(F)F)c(F)c3)C(=O)N2C1 [PP1431] | 9.24 | AA (a compound having 20 or more is denoted as AA) | A (a compound having 10 or more and less than 20 is denoted as A) | 7.39 | – | – | – | – | – | – |
| CCO[C@@H]1C[C@H]2C(=O)NC3(CCCC3)C(=O)N(C)[C@@H](C(CC)CC)C(=O)N(C)[C@H](C(=O)N3CCCC3)CC(=O)N(C)[C@@H](C)C(=O)N[C@@H]([C@@H](C)CC)C(=O)N(C)CC(=O)N(C)[C@H]3C/C=C\CCN(C3=O)[C@@H](CC3CCCCC3)C(=O)N(C)CC(=O)N[C@@H](CCc3cc(F)c(C(F)(F)F)c(F)c3)C(=O)N2C1 [PP1435] | 8.96 | A (a compound having 10 or more and less than 20 is denoted as A) | A (a compound having 10 or more and less than 20 is denoted as A) | 6.75 | – | – | – | – | – | – |
| CCC(CC)[C@H]1C(=O)N(C)[C@H](C(=O)N(C)C)CC(=O)N(C)[C@@H](COC)C(=O)N[C@@H]([C@@H](C)CC)C(=O)N(C)CC(=O)N(C)[C@H]2C/C=C\CCN(C2=O)[C@@H](CC2CCC(F)(F)CC2)C(=O)N(C)CC(=O)N[C@@H](CCc2ccc(C(F)(F)F)c(Cl)c2)C(=O)N2C[C@@H](C)C[C@H]2C(=O)NC2(CC(C)(C)C2)C(=O)N1C [PP2454] | – | – | – | 7.10 | 8.92 | AA (a compound having 20 or more is denoted as AA) | A (a compound having 10 or more and less than 20 is denoted as A) | – | – | – |
| CCCOC[C@H]1C(=O)N[C@@H]([C@@H](C)CC)C(=O)N(C)CC(=O)N(C)[C@H]2C/C=C\CCN(C2=O)[C@@H](CC2CCC(F)(F)CC2)C(=O)N(C)CC(=O)N[C@@H](CCc2cc(F)c(C(F)(F)F)c(F)c2)C(=O)N2C[C@@H](C)C[C@H]2C(=O)NC2(CC(C)(C)C2)C(=O)N(C)[C@@H](C(CC)CC)C(=O)N(C)[C@H](C(=O)N(C)C)CC(=O)N1C [PP2490] | – | – | – | 6.79 | 8.77 | AA (a compound having 20 or more is denoted as AA) | A (a compound having 10 or more and less than 20 is denoted as A) | – | – | – |
| CCCN1C(=O)[C@@H]2CCN2C(=O)[C@H](C)NC(=O)[C@H]([C@@H](C)CC)NC(=O)[C@H](CC(C)C)N(C)C(=O)C[C@@H](C(=O)N2CCOCC2)N(C)C(=O)[C@H](C2CCCC2)N(C)C(=O)C2(CCCC2)NC(=O)[C@@H]2CCCN2C(=O)[C@H](CCc2ccc(C(F)(F)F)c(Cl)c2)NC(=O)CN(C)C(=O)[C@@H]1Cc1ccc(C(F)(F)F)cc1 [PP0078] ([NMeL]IA[Aze][NPrPhe(4-CF3)][Sar][hPhe(3-Cl-4-CF3)]P[Ac5c][NMeGly(cPent)][NMeD]-Morpholide; lactam N-11) | – | – | – | 8.32 | – | C (A compound having a KD ratio of 0.1 or more and less than 3 is denoted as C) | B (a compound having 3 or more and less than 10 is denoted as B) | 9.72 | – | – |
| CCO[C@@H]1C[C@H]2C(=O)NC3(CCC3)C(=O)N(C)[C@@H](C3CCCC3)C(=O)N(C)[C@H](C(=O)N(C)C)CC(=O)N(C)[C@@H](COC3CC3)C(=O)N[C@@H]([C@@H](C)CC)C(=O)N(C)CC(=O)N(C)[C@H]3C/C=C\CCN(C3=O)[C@@H](Cc3ccc(C(F)(F)F)cc3)C(=O)N(C)CC(=O)N[C@@H](CCc3cc(F)c(C(F)(F)F)c(F)c3)C(=O)N2C1 [PP1268, (2S,8S,12R,14S,20S,23S,27S,30S,36S,38Z)-20-cyclopentyl-27-(cyclopropoxymethyl)-8-[2-[3,5-difluoro-4-(trifluoromethyl)phenyl]ethyl]-12-ethoxy-N,N,4,19,22,26,32,35-octamethyl-30-[(1S)-1-methylpropyl]-3,6,9,15,18,21,25,28,31,34,42-undecaoxo-2-[[4-(trifluoromethyl)phenyl]methyl]spiro[1,4,7,10,16,19,22,26,29,32,35-undecazatricyclo[34.5.1.0^10,14]dotetracont-38-ene-17,1′-cyclobutane]-23-carboxamide] | 10.35 | A (a compound having 10 or more and less than 20 is denoted as A) | A (a compound having 10 or more and less than 20 is denoted as A) | 7.92 | – | – | – | – | – | – |
| CC[C@H](C)[C@@H]1NC(=O)[C@@H]2CCCCCN2C(=O)C[C@@H](C(=O)N2CCOCC2)N(C)C(=O)[C@H](C2CCCC2)N(C)C(=O)C2(CCCC2)NC(=O)[C@@H]2CCCN2C(=O)[C@H](CCc2cc(F)c(C(F)(F)F)c(F)c2)NC(=O)CN(C)C(=O)[C@H](Cc2ccc(C(F)(F)F)cc2)N2CCCC[C@@H](C2=O)N(C)C(=O)CN(C)C1=O [PP0595] | – | – | – | 7.10 | – | – | – | 9.00 | C (A compound having a KD ratio of 0.1 or more and less than 3 is denoted as C) | B (a compound having 3 or more and less than 10 is denoted as B) |
| CC[C@H](C)[C@@H]1NC(=O)[C@H](CC2CC2)N(C)C(=O)C[C@@H](C(=O)N2CCOCC2)N(C)C(=O)[C@H](C2CCCC2)N(C)C(=O)C2(CCC2)NC(=O)[C@@H]2CCCN2C(=O)[C@H](CCc2ccc(C(F)(F)F)c(Cl)c2)NC(=O)CN(C)C(=O)[C@H](Cc2ccc(C(F)(F)F)cc2)N2C[C@H](C)CC[C@@H](C2=O)N(C)C(=O)[C@@H]2CCN2C1=O [PP1341] | 9.09 | A (a compound having 10 or more and less than 20 is denoted as A) | B (a compound having 3 or more and less than 10 is denoted as B) | 7.33 | – | – | – | – | – | – |
| CCCOC[C@H]1C(=O)N[C@@H]([C@@H](C)CC)C(=O)N(C)CC(=O)N(C)[C@H]2C/C=C\CCN(C2=O)[C@@H](Cc2ccc(C)cc2)C(=O)N(C)CC(=O)N[C@@H](CCc2ccc(C(F)(F)F)c(OC)c2)C(=O)N2C[C@H](OCC)C[C@H]2C(=O)NC2(CC(C)(C)C2)C(=O)N(C)[C@@H](C2CCCC2)C(=O)N(C)[C@H](C(=O)N(C)CC)CC(=O)N1C [PP2463] | – | – | – | 8.19 | 9.96 | A (a compound having 10 or more and less than 20 is denoted as A) | A (a compound having 10 or more and less than 20 is denoted as A) | – | – | – |
| C=CC[C@H]1C(=O)N[C@@H]([C@@H](C)CC)C(=O)N(C)CC(=O)N(C)[C@H]2C/C=C\CCN(C2=O)[C@@H](CC2CCCCC2)C(=O)N(C)CC(=O)N[C@@H](CCc2cc(F)c(C(F)(F)F)c(F)c2)C(=O)N2C[C@H](OCC)C[C@H]2C(=O)NC2(CCC2)C(=O)N(C)[C@@H](C2CCCC2)C(=O)N(C)[C@H](C(=O)N(C)C)CC(=O)N1C [PP1468, (2S,8S,12R,14S,20S,23S,27S,30S,36S,38Z)-27-allyl-2-(cyclohexylmethyl)-20-cyclopentyl-8-[2-[3,5-difluoro-4-(trifluoromethyl)phenyl]ethyl]-12-ethoxy-N,N,4,19,22,26,32,35-octamethyl-30-[(1S)-1-methylpropyl]-3,6,9,15,18,21,25,28,31,34,42-undecaoxo-spiro[1,4,7,10,16,19,22,26,29,32,35-undecazatricyclo[34.5.1.0^10,14]dotetracont-38-ene-17,1′-cyclobutane]-23-carboxamide] | 9.92 | A (a compound having 10 or more and less than 20 is denoted as A) | A (a compound having 10 or more and less than 20 is denoted as A) | 8.02 | – | – | – | – | – | – |
